The values that follow come from patent publication US8202910B2 (Sequella, Inc., priority 2006, dated 2012).

In brackets after ≈: the same amount, converted by molar mass. Several values for one entry are separate records, joined by “and”; a condition that tells them apart may be missing. Equal entries are not always repeated. Where two headings read alike, the source gives them in different places.

In series [1] the test system is M. tuberculosis H37Rv. Kind of series: Standard chronic mouse model of tuberculosis, CFU in lung. The series is classed as in vivo, C57BL/6 female mice. The conditions noted are these: RIF (20 mg/kg) by itself, 4 week therapy.
The subject of series [2] is RIF^R M. tuberculosis isolate 2482. Kind of series: microbe, parasite or virus in culture. The settings on record: for MIC (BACTEC): Strain 2482; for concentration to which the strain was susceptible: strain 2482. The series is classed as cell-based.
Series [3] relates to M. tuberculosis H37Rv. Kind of series: MIC by BACTEC 460. The series is classed as cell-based, Mycobacterium tuberculosis. The settings on record: for MIC: Mycobacterium tuberculosis, H37RV, read-out: MIC (BACTEC).
Series [4] has as its system RIF^R M. tuberculosis isolate 3185. Kind of series: microbe, parasite or virus in culture. The series is classed as cell-based. The conditions noted are these: for concentration to which the strain was susceptible: strain 3185.
Series [5] relates to M. tuberculosis H37Rv (Pasteur). Kind of series: Rapid in vivo model of TB, body weight of infected mice. Set-up: species or system C3H female mice. The conditions noted are these: single drug alone (SQ109 10 mg/kg; RIF 2 mg/kg), by the 3 wk.
Series [6] relates to wild type of M.tb. Kind of series: MIC, secondary screening, wild type. The series is classed as cell-based, Mycobacterium tuberculosis. The conditions noted are these: Mycobacterium tuberculosis, WT.
The subject of series [7] is monkey kidney cells (Vero). Kind of series: In vitro toxicity, Vero cells. Type of series: cell-based. The settings on record: Primates. On the procedure: Twenty six compounds (including 37, 59 and 109) were tested in an in vitro model of toxicity using monkey kidney cells (Vero) and human cervical cancer cells (HeLa) using methods well known to those skilled in the art. The data from this toxicity testing and the MIC data were used to calculate a selectivity index (SI), the ratio of IC50:MIC (Table 15). Selectivity Indexes were ranging from 1.76 to 16.67.

For series [8], the system named is M. tuberculosis H37Rv. Kind of series: In vivo efficacy, mice infected i.v. with M. tuberculosis, CFU in spleen and lungs. The arrangement: species or system C57BL/6 mice. The settings on record: for activity in vivo, spleen and lung: 25 mg/kg, 5×10^6 CFU, 4 weeks.
Series [9] relates to H37Rv strain of Mycobacterium tuberculosis. Kind of series: microbe, parasite or virus in culture. Type of series: cell-based.
In series [10] the test system is cells. Kind of series: LD50 for selectivity index (Table 10). Type of series: cell-based, Mycobacterium tuberculosis. From the text: Table 10 lists MIC and LD50 data for selected compounds. […] Table 11 lists MIC data for purified substituted ethylene diamines in comparison to ethambutol (EMB).
Setting [11] is: Mycobacterium tuberculosis, read-out: MIC (BACTEC).
Where [12] appears, read: EMB, RL241, Cmpd#59 as 2HCl salt, Cmpd#109 as 2CF3COOH salt, read-out: MIC.
The mark [13] stands for this setting: Mycobacterium tuberculosis, H37RV, Table 15, read-out: MIC.
Setting [14] is: Mycobacterium tuberculosis, H37RV, read-out: MIC.

In the case of `CO[C@H]1/C=C/O[C@@]2(C)Oc3c(C)c(O)c4c(O)c(c(/C=N/N5CCN(C)CC5)c(O)c4c3C2=O)NC(=O)/C(C)=C\C=C\[C@H](C)[C@H](O)[C@@H](C)[C@@H](O)[C@@H](C)[C@H](OC(C)=O)[C@@H]1C` [RIF, Rifampicin], the CFU in lung in [1] was found to be 5.8 log10. Further, the MIC in series [2] (setting [11]) is above 100 µg/mL; in series [3], 0.2 µg/mL (≈ 0.243 µM); in series [4] (setting [11]) it was 24 µg/mL (≈ 29.2 µM). Moreover, the “MIC (BACTEC)” value in [2] (listed as Rifampicin) is above 100 µg/mL; in series [2] (listed as rifampicin), above 100 µg/mL; in series [3] (H37Rv) it was 0.17 µg/mL (≈ 0.207 µM); in [4] (isolate 3185) it was 24 µg/mL (≈ 29.2 µM). In series [5], this compound gave an average weight of 19.7 g.
For the compound `CC1(C)CC2CC(C)(CN2CCNC[C@@H]2CCC3C[C@@H]2C3(C)C)C1` [MP 116], the MIC in series [6] (setting [12]) stood at 6.25 µg/mL.
The term IC50 denotes the midpoint of a concentration-inhibition curve. `C1CCCC(NCCNC2C3CC4CC(C3)CC2C4)CCC1` (stereo not drawn) [Compound 58, N-(Cyclooctyl)-N′-(2-adamantyl)ethane-1,2-diamine] showed an IC50 in [7] of 82 µM. For the same compound, in [8], the “activity in vivo, spleen and lung” value is “active in vivo in both spleen and lung”. The MIC in series [9] (setting [13]) came to 12.5 µM.
As for `[H]/N=C(/N)N[C@H]1[C@H](O)[C@@H](O)[C@H](O[C@@H]2O[C@@H](C)[C@](O)(C=O)[C@H]2O[C@@H]2O[C@@H](CO)[C@H](O)[C@@H](O)[C@@H]2NC)[C@@H](N/C(N)=N\[H])[C@@H]1O` [SM, Streptomycin], the “concentration to which the strain was susceptible” value in series [2] and in series [4] was 2 mg/L throughout. Moreover, the MIC in [3] is 0.25 µg/mL (≈ 0.43 µM).
Turning to `C[C@@H]1C2C[C@@H](C[C@H]1NCCNC[C@@H]1CCC3C[C@@H]1C3(C)C)C2(C)C` [MP 117], the MIC in [6] (setting [12]) was found to be 6.25 µg/mL.
In series [7], `CCC1CCCCN1CCNC/C=C(\C)CCC=C(C)C` (stereo not drawn) [Compound 111, N-[2-(N′-Geranyl)aminoethyl]-2-ethylpiperidine] came in with an IC50 of 45 µM. Moreover, the “anti-tuberculosis activity compared with EMB” value in series [8] (10 mg/kg, B6 mice, 5×10^5 CFU, chemotherapy from day 20) is given as “comparable to that of EMB at 100 mg/kg”. The “activity in vivo, spleen and lung” value in [8] was “active in vivo in both spleen and lung”. Further, the “MIC” value in series [9] is 7.813 µM and 7.8 µM; in [9] (Mycobacterium tuberculosis, H37RV, Table 10, from uM and MW, read-out: MIC), 3.22 µg/mL; in [9] (Mycobacterium tuberculosis, H37RV, Table 10, read-out: MIC), 7.81 µM; in series [9] (setting [13]), 7.81 µM; in [9] (setting [14]), 7.81 µM. The “SI (Selectivity Index)” value in series [10] (LD50 : MIC) came to 5.632. In addition, the “LD50” value in [10] (concentration at which 50% of the cells are killed) worked out at 44 µM; in series [10] (from uM and MW), 18.128 µg/mL.
`CC1(C)C2CCC(CNCCNCC(c3ccccc3)c3ccccc3)[C@@H]1C2` (stereo partly drawn) [RL 241]: the MIC in [6] (value in brackets, read-out: MIC (or uM)) is 3.34 µM; in [6] (setting [12]), 1.5 µg/mL.
As to `NNC(=O)c1ccncc1` [INH, Isoniazid], the “activity in spleen and lung, rank among drugs” value in series [8] (INH 25 mg/kg) is “the most active drug in both spleen and lung”. The “decrease of load of bacteria in organs” value in [8] (during 4-6 weeks of chemotherapy) is reported as 2-3 logs. The “concentration to which the strain was susceptible” value in series [2] and in [4] was 0.1 mg/L throughout. Also, the MIC in [9] (setting [14]) is 0.91 µM; in series [3], 0.025 µg/mL (≈ 0.182 µM).
